Source: patent publication US10100011B2, “Pentadienoyl piperidine derivative and use thereof” (Industry-Academic Cooperation Foundation, Yonsei University, priority 2014, dated 2018)

Legend:
[1] = target: T1, human recombinant SIRT1 enzyme (Homo sapiens, UniProt Q96EB6); test: SIRT1 activity measurement (SIRT1 Fluorometric Drug Discovery Kit); type: biochemical
T1 construct: purchased ENZO Life Sciences Inc., NY, USA BML-AK555
T1 sequence (Q96EB6 1-747): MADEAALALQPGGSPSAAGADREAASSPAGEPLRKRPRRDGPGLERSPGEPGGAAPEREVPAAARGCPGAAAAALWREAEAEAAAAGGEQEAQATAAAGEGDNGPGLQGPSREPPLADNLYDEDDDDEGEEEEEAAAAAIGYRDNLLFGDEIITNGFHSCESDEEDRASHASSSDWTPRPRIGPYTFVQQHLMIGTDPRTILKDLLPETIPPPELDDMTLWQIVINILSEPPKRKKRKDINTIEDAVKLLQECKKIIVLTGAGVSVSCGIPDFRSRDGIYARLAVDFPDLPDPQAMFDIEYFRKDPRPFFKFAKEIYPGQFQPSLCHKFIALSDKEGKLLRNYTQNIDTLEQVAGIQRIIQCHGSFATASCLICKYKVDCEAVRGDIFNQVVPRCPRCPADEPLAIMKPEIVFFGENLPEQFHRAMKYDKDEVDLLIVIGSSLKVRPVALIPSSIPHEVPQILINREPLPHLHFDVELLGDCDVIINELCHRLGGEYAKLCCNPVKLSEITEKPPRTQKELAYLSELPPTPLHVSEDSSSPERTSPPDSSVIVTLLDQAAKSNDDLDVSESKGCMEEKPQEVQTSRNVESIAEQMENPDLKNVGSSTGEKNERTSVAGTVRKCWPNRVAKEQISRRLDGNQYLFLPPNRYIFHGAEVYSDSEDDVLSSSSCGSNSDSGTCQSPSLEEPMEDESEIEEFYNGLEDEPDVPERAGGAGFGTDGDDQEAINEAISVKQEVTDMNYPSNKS
Description: To analyze SIRT1 activity in a test tube, a deacetylation degree of acetylated lysine included in a substrate was measured using an SIRT1 Fluorometric Drug Discovery Kit (BML-AK555, ENZO Life Sciences Inc., NY, USA). 0.067 U/μl of a human recombinant SIRT1 enzyme and a test substance were mixed in a 96-well plate and reacted at 37° C. for 10 minutes. Subsequently, 167 μM substrate [379th to 382nd amino acid peptide of human p53, Arg-His-Lys-Lys(Ac)] and 1667 μM NAD^+ were added thereto, followed by reacting at 37° C. for 30 minutes. To stop the reaction of SIRT1, 50 μL of a developer including 2 mM nicotinamide was added, followed by reacting at 37° C. for 30 minutes. Chromophoric fluorescence intensity was measured at 360 nm excitation and 460 nm emission.

[2] = system: genes related to adipose tissue generation and thermogenesis in visceral fat tissue; test: Gene (RT-PCR) and protein (Western blotting) expression in visceral (epididymal) fat tissue of mice; type: in vivo, mouse; settings: compound in high-fat diet
Description: (§1) 1 ml of a TRIzol solution per 0.1 g of epididymal fat tissue was added to the pulverized tissue, followed by centrifuging at 4° C. and 12,000×g for 10 minutes. A supernatant was transferred into a new tube and then 200 μl of chloroform was added thereto, followed by vortexing. This process was repeated twice and then a supernatant was transferred into a new tube. Subsequently, isopropanol and the supernatant were mixed in a ratio of 1:1 and strongly shook ten times, followed by standing at room temperature for 10 minutes. Subsequently, centrifugation was carried out at 12,000×g and 4° C. for 10 minutes, followed by removing a supernatant and adding 1 ml of 70% ethanol to the remaining precipitate. Subsequently, centrifugation was carried out at 7,500×g and 4° C. for five minutes. Ethanol was removed and then the tube containing an RNA precipitate was dried at room temperature for five minutes. The dried RNA pellet was dissolved in nuclease free water. The concentrations of the extracted RNA samples were measured at wavelengths of 260 nm and 280 nm by means of a UV/VIS spectrophotometer (Beckman Coulter, DU730). In addition, the extracted RNA samples were electrophoresed on an agarose gel to confirm the quality of the RNA samples.
The RNA samples extracted from epididymal fat tissue were subjected to reverse transcription using oligo dT primers and the Superscript reverse transcription enzyme (GIBCO BRL, Gaithersburg, Md., USA), thereby synthesizing cDNAs. Each of the synthesized cDNAs was used as a template and 5′ and 3′ flanking sequences of cDNA of each of genes to be amplified were used as primers, thereby performing PCR. 1 μl of each of amplified PCR products was electrophoresed on a 1% agarose gel and a DNA band was observed.
A predetermined amount of visceral fat or liver tissue was homogenized with liquid nitrogen and a lysis buffer in a mortar and then centrifuged at 13,000 rpm and 4° C. for 20 minutes. Subsequently, a middle layer was collected and subjected to protein quantification according to the Bradford method. 50 μg of a protein was electrophoresed on an SDS polyacryamide gel and then electro-blotted on hyperfilm PVDF. A reaction was carried out using a corresponding antibody and detection was performed using ECL.

[3] = system: genes related to lipogenesis and AMPK in liver tissue; test: Gene (RT-PCR) and protein (Western blotting) expression in liver tissue of mice; type: in vivo, mouse; settings: compound in high-fat diet, pattern similar to Chow group
Description: as §1, with “The dried RNA pellet was dissolved in nuclease free water.” left out, “In addition, the extracted RNA samples were electrophoresed on an agarose gel to confirm the quality of the RNA samples.” left out
A predetermined amount of visceral fat or liver tissue was homogenized with liquid nitrogen and a lysis buffer in a mortar and then centrifuged at 13,000 rpm and 4° C. for 20 minutes. Subsequently, a middle layer was collected and subjected to protein quantification according to the Bradford method. […]

[4] = RT-PCR, levels similar to Chow group

Vmax value of SIRT1 ([1]; in presence of 600 μM compound): without change | concentration at which SIRT1 activity was highest ([1]; increasing concentration of compound, human recombinant SIRT1): 600 µM
Structure (SMILES): CSc1ccc(/C=C/C=C/C(=O)N2CCCCC2)cc1 [LJ-2501, (2E,4E)-5-(4-(methylthio)phenyl)-1-(piperine-1-yl)penta-2,4-diene-1-one]
expression levels of NRF-1, COX2 and TFAM in visceral fat tissue ([2]; RT-PCR): increasing | gene expression levels of PGC-1α, SIRT1 and UCP1 in visceral adipose tissue compared to HFD [2, 4]: increased | mRNA expression of C/EBPα, PPARγ2 and target genes (CD36, FAS, leptin) in epididymal fat tissue compared to HFD [2, 4]: reduced | phosphorylation level of CREB proteins in visceral adipose tissue ([2]; Western blotting): increased | HFD-caused increase of expression of downstream genes of AMPK (LXRα, SREBP-1c, LPL, FAS, ACC) in liver tissue ([3]; RT-PCR): reversed | HFD-caused reduction of AMPK phosphorylation in liver tissue ([3]; Western blotting): reversed
